According to ChEMBL document CHEMBL3507680, “University of Dundee, Gates Library screen for HepG2 cell viability”:

Test: Human HepG2 cell viability assay in 384 well format
Format: toxicity, cell-based
Design: dose 125 nL, time 70.5 hour; concentration not given beside the values
Conditions: HepG2 cells, read-out: Inhibition

For `CC(C)Cc1noc(CN2CCCN(C(=O)c3cccc(Cl)c3)CC2)n1`, the cytotoxicity at 70.5 h was 23.3%.
For `O=C(CS(=O)(=O)Cc1ccc(F)cc1)NCc1ccccc1F`, the cytotoxicity at 70.5 h was -8.79%.
`Cc1ccc(C(=O)NCC(O)c2ccc(F)c(F)c2)c(=O)[nH]1` (stereo unspecified) showed a cytotoxicity at 70.5 h of -10.6%.
`CC(C)Oc1ncc(C(=O)N2CCC(CC(N)=O)CC2)cc1Cl` gave a cytotoxicity at 70.5 h of -8.52%.
In the case of `O=C(CS(=O)(=O)Cc1ccccc1)NCc1ccccc1F`, the cytotoxicity at 70.5 h is reported as 22.1%.
In the case of `COC(C)C(=O)Nc1cc(C(=O)N2CCSCC2)ccc1C` (stereo unspecified), the cytotoxicity at 70.5 h is reported as 0.013%.
`COCCCNC(=O)Nc1cc(-c2ccccc2C)nn1CCO` showed a cytotoxicity at 70.5 h of -5.71%.
`COC(=O)CCN1CCC(C(=O)c2cc(F)ccc2F)CC1` gave a cytotoxicity at 70.5 h of -12.5%.
`CN(C)C(=O)Cc1nc(CN2CCCCC2Cn2cncn2)cs1` (stereo unspecified) showed a cytotoxicity at 70.5 h of 23.2%.
Work on `Cc1ccccc1-c1cc(NC(=O)NC2CC2)n(CCO)n1` yielded a cytotoxicity at 70.5 h of 1.97%.
Compound `O=C(NCCN1C(=O)CCC1=O)c1nc2ccccc2c(=O)[nH]1` has a cytotoxicity at 70.5 h of -12.2%.
Compound `Cc1n[nH]c(C2CN(C(=O)c3coc(Br)c3)CCO2)n1` (stereo unspecified) has a cytotoxicity at 70.5 h of -10.2%.
In the case of `Cc1n[nH]c(C2CN(C(=O)c3ccc4c(c3)COC4)CCO2)n1` (stereo unspecified), the cytotoxicity at 70.5 h is reported as -1.57%.
Work on `O=C(CNC(=O)c1c(F)cccc1Cl)Nc1ccc(F)cn1` yielded a cytotoxicity at 70.5 h of -12.6%.
Compound `Cc1n[nH]c(C2CN(C(=O)c3csnn3)CCO2)n1` (stereo unspecified) has a cytotoxicity at 70.5 h of -11.9%.
Compound `Cc1csc(NC(=O)c2cccnc2N2CCOCC2)n1` has a cytotoxicity at 70.5 h of 18.7%.
Work on `CNC(=O)CS(=O)(=O)Cc1ccc(OC)c(F)c1` yielded a cytotoxicity at 70.5 h of -11.9%.
Compound `CN(C)C(=O)Cc1nc(CN2CCCC2Cn2cncn2)cs1` (stereo unspecified) has a cytotoxicity at 70.5 h of -10.9%.
With `Cc1nnc(CN(C)C2CCN(CCc3cccs3)C2)n1C` (stereo unspecified) the cytotoxicity at 70.5 h was 15.2%.
With `Cc1cccc(C(=O)N2CCN(c3ccccc3F)CC2)n1` the cytotoxicity at 70.5 h was -7.27%.
For `CN(CC(=O)NC1CC1)S(=O)(=O)c1ccc(F)cc1Cl`, the cytotoxicity at 70.5 h was -3.95%.
With `CCCc1nnc(NC(=O)NC2CCOc3ccccc32)s1` (stereo unspecified) the cytotoxicity at 70.5 h was -4.65%.
In the case of `CC(=O)c1c(F)cccc1N1CCC(C(N)=O)CC1`, the cytotoxicity at 70.5 h is reported as -1.92%.
For `CC(=O)N1CCN(C(=O)CN2CCN(c3cccc(C)c3)CC2)CC1`, the cytotoxicity at 70.5 h was -6.8%.
For `CCc1noc(C)c1C(=O)Nc1cnn(CC(=O)NC2CCCC2)c1`, the cytotoxicity at 70.5 h was -1.44%.
Work on `COc1ccc(C(=O)Nc2c(C)nn(C(C)C)c2C)cc1` yielded a cytotoxicity at 70.5 h of 23.1%.
Work on `CCN(CC)C(=O)CCNC(=O)c1ccccc1N1CCOCC1` yielded a cytotoxicity at 70.5 h of 23.2%.
With `CCCNC(=O)CCNC(=O)c1ccccc1N1CCOCC1` the cytotoxicity at 70.5 h was -4.62%.
`Cc1cccc(CNCCOc2ccc(S(C)(=O)=O)cc2)c1` gave a cytotoxicity at 70.5 h of -0.853%.
With `CCN(CC)c1ccc(NS(=O)(=O)c2cnn(CC)c2)cn1` the cytotoxicity at 70.5 h was 1.09%.
With `Cc1noc(C)c1CNC(=O)N1CCC(OCC2CC2)CC1` the cytotoxicity at 70.5 h was 25.4%.
With `Cc1ccc(OCC(=O)NCc2sccc2C)nc1` the cytotoxicity at 70.5 h was -3.68%.
With `CCN(C1CCN(c2cccc(F)c2C(C)=O)CC1)S(C)(=O)=O` the cytotoxicity at 70.5 h was -5.28%.
Compound `CN(Cc1nnc(C2CC2)n1C)C1CCN(CCc2ccccc2)C1` (stereo unspecified) has a cytotoxicity at 70.5 h of -3.03%.
`CCCN1CCCN(c2ncccc2C(=O)N2CCCCC2)CC1` showed a cytotoxicity at 70.5 h of -2.98%.
In the case of `Cc1cc(C)c(C(=O)Nc2cccc(CN3CCC(CO)CC3)c2)o1`, the cytotoxicity at 70.5 h is reported as 4.26%.
With `COC(=O)C(C)(C)NC(=O)C1CC(=O)N(CC(C)C)C1` (stereo unspecified) the cytotoxicity at 70.5 h was -0.314%.
Work on `CCN1CC(C(=O)NC(C)(C)C(=O)OC)CC1=O` (stereo unspecified) yielded a cytotoxicity at 70.5 h of 3.17%.
Work on `N#Cc1ncn(CCC(=O)Nc2cc(Cl)ccc2Cl)n1` yielded a cytotoxicity at 70.5 h of -4.2%.
Compound `COc1ccc(CC(=O)NCCNS(=O)(=O)c2ccc(C)cc2)cc1` has a cytotoxicity at 70.5 h of 2.16%.
In the case of `COc1ccc(OCCN(C)C(=O)c2ccc(OC)cc2O)cc1`, the cytotoxicity at 70.5 h is reported as -9.58%.
In the case of `CC(c1cccnc1)N1CCN(CCc2ccccn2)CC1` (stereo unspecified), the cytotoxicity at 70.5 h is reported as -0.575%.
Work on `c1ccn2c(SCC3CN=C(N4CCOCC4)S3)ncc2c1` (stereo unspecified) yielded a cytotoxicity at 70.5 h of 19.3%.
`COc1ccc(CNC(C)c2cn[nH]c2C)cc1` (stereo unspecified) showed a cytotoxicity at 70.5 h of 14.1%.
`CC(C)c1nc(C2CCCN2C(=O)CN(C)Cc2ccccc2)no1` (stereo unspecified) showed a cytotoxicity at 70.5 h of 11.3%.
Compound `Cc1n[nH]c(SCC(=O)NC(c2ccncc2)C(C)C)n1` (stereo unspecified) has a cytotoxicity at 70.5 h of 21%.
For `CC(C)c1cccc(CSc2nnc(Cn3cncn3)o2)n1`, the cytotoxicity at 70.5 h was -7.35%.
`CCN(Cc1ccoc1)C(C(N)=O)c1cccc(Br)c1` (stereo unspecified) showed a cytotoxicity at 70.5 h of -7.25%.
`CNC(=O)CCN1CCCCCC1c1ccc(C)o1` (stereo unspecified) gave a cytotoxicity at 70.5 h of 13.3%.
`CCN(C(C)=O)c1nc(CN2CCN(c3nccs3)CC2)cs1` showed a cytotoxicity at 70.5 h of 23.5%.
Work on `CC(C)c1nnc(NC(=O)CCc2cc(F)ccc2F)[nH]1` yielded a cytotoxicity at 70.5 h of -16.3%.
With `Cc1cn2nc(N3CCCC3C(=O)N3CCOCC3)sc2n1` (stereo unspecified) the cytotoxicity at 70.5 h was -15.3%.
Compound `Cc1nnc(N2CCNCC2)c(C(N)=O)c1C` has a cytotoxicity at 70.5 h of -16.9%.
Compound `O=C(NCc1cccc(F)c1)Nc1ccn(CCN2CCOCC2)n1` has a cytotoxicity at 70.5 h of -4.92%.
Compound `O=C(NCc1ccccc1F)Nc1ccn(CCN2CCOCC2)n1` has a cytotoxicity at 70.5 h of -15.3%.
Compound `Cc1ccc(C2CCCCCN2CCNS(C)(=O)=O)o1` (stereo unspecified) has a cytotoxicity at 70.5 h of -5.05%.
With `CC(C)c1cc(CNC(=O)Nc2cc(F)cc(N3CCCC3)c2)on1` the cytotoxicity at 70.5 h was 17.1%.
Work on `CCc1cc(CNC(=O)Nc2cc(F)cc(N3CCCC3)c2)on1` yielded a cytotoxicity at 70.5 h of -11.5%.
For `CN(Cc1ccc([S+](C)[O-])cc1)c1cncc(Cl)n1` (stereo unspecified), the cytotoxicity at 70.5 h was -15.4%.
`CCCc1cc(C(=O)Nc2nc(SC)ns2)[nH]n1` showed a cytotoxicity at 70.5 h of -4.32%.
For `CCOc1cccc(NC(=O)Cc2cccc(O)c2)n1`, the cytotoxicity at 70.5 h was 16.2%.
For `CC(C)(C)OC(=O)NC1CCC(NC(=O)c2ccc[nH]2)CC1` (stereo unspecified), the cytotoxicity at 70.5 h was -6.62%.
Compound `O=C1CCc2cc(S(=O)(=O)NC(=O)c3ccc4c(c3)CCO4)ccc2N1` has a cytotoxicity at 70.5 h of -1.87%.
In the case of `O=c1[nH]nc2n1CCN(S(=O)(=O)c1ccccc1Cl)C2`, the cytotoxicity at 70.5 h is reported as -7.03%.
With `CCCc1nnnn1Cc1cn2c(C)cccc2n1` the cytotoxicity at 70.5 h was -2.3%.
`CNC(=O)COc1ccccc1CNCc1c(C)noc1C` showed a cytotoxicity at 70.5 h of -3.67%.
With `Cc1cc(CNC(=O)CC2CN(C(=O)OC(C)(C)C)C2)ccc1F` the cytotoxicity at 70.5 h was -9.79%.
`CN(Cc1ccc([S+](C)[O-])cc1)c1ccc(Br)cn1` (stereo unspecified) showed a cytotoxicity at 70.5 h of -0.515%.
For `Cc1ccc(C2CCCCCN2CCCS(C)(=O)=O)o1` (stereo unspecified), the cytotoxicity at 70.5 h was -10.5%.
For `CCOc1cccc(CCNC(=O)Cc2ccccc2O)n1`, the cytotoxicity at 70.5 h was -14.9%.
`O=C(CN1CCC2(CCCCC2)C1)NCC(F)(F)F` gave a cytotoxicity at 70.5 h of -9.38%.
With `CSc1ccc(NC(=O)COCc2ccccc2)nc1` the cytotoxicity at 70.5 h was 15%.
`CCCn1nnnc1CSCc1cn2c(C)cccc2n1` showed a cytotoxicity at 70.5 h of -12.9%.
For `CCCC(C)(C)NC(=O)c1cnc(CC)s1`, the cytotoxicity at 70.5 h was -1.12%.
For `CCc1ncc(C(=O)NC(C)(C)C(=O)OC)s1`, the cytotoxicity at 70.5 h was 12.2%.
Work on `Cn1nnnc1SCCC(=O)NCC(C)(C)c1ccccc1F` yielded a cytotoxicity at 70.5 h of 19.1%.
With `CC(C)(CNC(=O)CSc1nnnn1C1CC1)c1ccccc1F` the cytotoxicity at 70.5 h was -7.67%.
`COCCCSc1ccc(NC(=O)Nc2cn[nH]c2)cc1` showed a cytotoxicity at 70.5 h of 18.2%.
`N#Cc1ccc(N2CCN(c3cnccn3)CC2)cc1C(F)(F)F` gave a cytotoxicity at 70.5 h of 24.7%.
`Cc1nc2n(n1)CCN(S(=O)(=O)c1ccc(OC(F)(F)F)cc1)C2` gave a cytotoxicity at 70.5 h of -1.32%.
`Cc1nc2n(n1)CCN(S(=O)(=O)c1ccc(Cl)cc1)C2` gave a cytotoxicity at 70.5 h of -3.28%.
`Cn1cc(S(=O)(=O)NCCc2nnc3ccccn23)cn1` showed a cytotoxicity at 70.5 h of -4.25%.
Compound `O=C(Nc1cc(Cl)ccc1Cl)NC1CCN(C2CCOC2)CC1` (stereo unspecified) has a cytotoxicity at 70.5 h of 25.3%.
For `O=C(c1ccc[nH]1)N(Cc1ccc(O)cc1)CC1CC1`, the cytotoxicity at 70.5 h was 20.8%.
`CN(C)C1CN(C(=O)Nc2cccc(OC(F)F)c2)C1` showed a cytotoxicity at 70.5 h of 17.6%.
Compound `CN(C)c1cccc(CNC(=O)Nc2ccc3[nH]nnc3c2)n1` has a cytotoxicity at 70.5 h of -2.68%.
